Numbers after ± are expanded uncertainties.

Here are results for four molecules from the NIST ThermoML archive (doi:10.1016/j.fluid.2015.12.048).

The conditions of data set [1]: Crystal.
A short description of data set [2]: Molar enthalpy of transition or fusion. Conditions: Crystal; DSC.

Regarding `OCc1ccccc1` [benzenemethanol], the Normal melting temperature in data set [1] (DTA) and in data set [1] (visual observation) was -15.0 ± 0.4 °C throughout.
As to `Cc1ccc(C(C)C)c(O)c1` [3-methyl-6-isopropylphenol], the Normal melting temperature in data set [1] (DTA) was 49.7 ± 0.4 °C; in data set [1] (visual observation), 50.0 ± 0.4 °C. For the same molecule, the “Molar enthalpy of transition or fusion” value in data set [2] is 4.19 ± 0.103 kcal/mol.
Turning to `CCCCCCCCCCO` [decan-1-ol], the Normal melting temperature in data set [1] (DTA) and in data set [1] (visual observation) was 7.0 ± 0.4 °C in each case.
`CC(C)[C@@H]1CC[C@@H](C)C[C@H]1O` [L-menthol]: the Normal melting temperature worked out at 43.6 ± 0.4 °C in data set [1] (DTA) and 42.8 ± 0.4 °C in data set [1] (visual observation). The “Molar enthalpy of transition or fusion” value in data set [2] came to 3.07 ± 0.086 kcal/mol.
